Measured values as given in patent publication US20080096884A1, “4-Aminoquinoline-3-Carboxamide Derivatives as Pde4 Inhibitors” (priority 2003, published 2008).

Tests used:
[1] = molecular target: T1, PDE4B (human recombinant) (Homo sapiens, UniProt Q07343); assay: Inhibition of PDE4B catalytic activity (SPA or IMAP FP assay); format: biochemical; conditions: SPA or FP assay not specified, read-out: PDE4B mean pIC50 (converted)
T1 construct: made in house; host or cells: Saccharomyces cerevisiae strain GL62 (as described in the cited WO 94/20079)
T1 sequence (Q07343 1-564 isoform Q07343-2): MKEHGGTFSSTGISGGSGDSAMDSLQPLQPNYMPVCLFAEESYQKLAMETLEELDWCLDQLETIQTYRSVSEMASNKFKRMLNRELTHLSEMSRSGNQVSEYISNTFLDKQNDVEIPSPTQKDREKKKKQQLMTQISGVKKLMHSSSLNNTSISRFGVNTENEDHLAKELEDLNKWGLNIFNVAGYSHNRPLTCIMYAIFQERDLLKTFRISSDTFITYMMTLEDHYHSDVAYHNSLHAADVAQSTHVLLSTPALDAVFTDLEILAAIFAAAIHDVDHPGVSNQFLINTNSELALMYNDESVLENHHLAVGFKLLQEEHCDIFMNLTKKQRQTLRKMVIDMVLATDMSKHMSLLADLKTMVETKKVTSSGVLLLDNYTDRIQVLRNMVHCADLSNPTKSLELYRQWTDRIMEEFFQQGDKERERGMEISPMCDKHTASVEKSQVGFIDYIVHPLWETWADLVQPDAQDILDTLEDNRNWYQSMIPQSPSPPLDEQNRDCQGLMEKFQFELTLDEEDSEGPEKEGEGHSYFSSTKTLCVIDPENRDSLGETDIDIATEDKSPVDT
From the text: Human recombinant PDE4B, in particular the 2B splice variant thereof (HSPDE4B2B), is disclosed in WO 94/20079 and also in M. M. McLaughlin et al., “A low Km, rolipram-sensitive, cAMP-specific phosphodiesterase from human brain: cloning and expression of cDNA, biochemical characterisation of recombinant protein, and tissue distribution of mRNA”, J. Biol. Chem., 1993, 268, 6470-6476. […]
(§1) The ability of compounds to inhibit catalytic activity at PDE4B or 4D (human recombinant), PDE3 (from bovine aorta) PDE5 (human recombinant) or PDE 6 (from bovine retina) may be determined by Scintillation Proximity Assay (SPA) in 96-well format. […] Bound radioactive product was measured using a WALLAC TRILUX 1450 MicroBeta scintillation counter. […] Curves were analysed using ActivityBase and XLfit (ID Businesss Solutions Limited, 2 Ocean Court, Surrey Research Park, Guildford, Surrey GU2 7QB, United Kindgom). Results were expressed as pIC50 values.
The ability of compounds to inhibit catalytic activity at PDE4B (human recombinant) and PDE4D (human recombinant) was determined by IMAP Fluorescence Polarisation (FP) assay (Molecular Devices Ltd code: R8062) in 384-well format. […]
Fluorescein adenosine 3′,5′-cyclic phosphate (Molecular Devices Ltd code: R7091) was added to give ˜40 nM final concentration. […] Curves were analysed using ActivityBase and XLfit (ID Businesss Solutions Limited). […]

PDE5 (human recombinant) = PDE5 (human recombinant) (Homo sapiens, UniProt O76074); assay: Inhibition of PDE5 catalytic activity (SPA); format: biochemical; conditions: read-out: PDE5 mean pIC50 (converted)
From the text: Human recombinant PDE5 is disclosed in K. Loughney et al., “Isolation and characterisation of cDNAs encoding PDE5A, a human cGMP-binding, cGMP-specific 3′,5′-cyclic nucleotide phosphodiesterase”, Gene, 1998, 216, 139-147.
as §1, with “format. Test compounds (preferably as a solution in DMSO, e.g. 2 microlitre (μl) volume) were preincubated at ambient temperature in Wallac Isoplates (code 1450-514) with PDE enzyme in 50 mM Tris-HCl buffer pH 7.5, 8.3 mM MgCl2, 1.7 mM EGTA, 0.05% (w/v) bovine serum albumin for 10-30 minutes. The enzyme concentration was adjusted so that control rates are linear over the asay incubation period.” for “format.”

IC50 [1] [µM] | IC50 (PDE5 (human recombinant)) [µM] | Structure (SMILES)
0.00251 | 12.6 | NC(=O)c1cnc2ccc(S(=O)(=O)N3CCOCC3)cc2c1Nc1cccc(Cl)c1 [Example 4]
0.001 | 15.8 | COc1cccc(Nc2c(C(N)=O)cnc3ccc(S(=O)(=O)N(C)C)cc23)c1 [Example 2, 6-[(dimethylamino)sulfonyl]4-{[3-(methyloxy)phenyl]amino}-3-quinolinecarboxamide]
